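Grown in 96-well plates, cells were treated for 48 hours with each compound at five concentrations. Insufficient inhibition: endpoint recorded as highest concentration tested. GI50 is the concentration that inhibits growth by half. TGI is the concentration that stops growth completely.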
How the values were obtained:
Experiment in all cases: inhibition of tumour cell growth, NCI panel, 48 h
[1] = tested on: 786-0 renal
[2] = tested on: A498 renal
[3] = tested on: A549 NSCLC
[4] = tested on: ACHN renal
[5] = tested on: BT-549 breast
[6] = tested on: CAKI-1 renal
[7] = tested on: CCRF-CEM leukemia
[8] = tested on: COLO 205 colon
[9] = tested on: DU-145 prostate
[10] = tested on: EKVX NSCLC
[11] = tested on: HCC-2998 colon
[12] = tested on: HCT-116 colon
[13] = tested on: HCT-15 colon
[14] = tested on: HL-60(TB) leukemia
[15] = tested on: HOP-62 NSCLC
[16] = tested on: HOP-92 NSCLC
[17] = tested on: HS 578T breast
[18] = tested on: HT29 colon
[19] = tested on: IGROV1 ovarian
[20] = tested on: K-562 leukemia
[21] = tested on: KM12 colon
[22] = tested on: LOX IMVI melanoma
[23] = tested on: M14 melanoma
[24] = tested on: MALME-3M melanoma
[25] = tested on: MCF7 breast
[26] = tested on: MDA-MB-231 breast
[27] = tested on: MDA-MB-435
[28] = tested on: MDA-MB-468 breast
[29] = tested on: MOLT-4 leukemia
[30] = tested on: NCI-H226 lung
[31] = tested on: NCI-H23 lung
[32] = tested on: NCI-H460 lung
[33] = tested on: NCI-H522 lung
[34] = tested on: NCI/ADR-RES ovarian
[35] = tested on: OVCAR-3 ovarian
[36] = tested on: OVCAR-4 ovarian
[37] = tested on: OVCAR-5 ovarian
[38] = tested on: OVCAR-8 ovarian
[39] = tested on: PC-3 prostate
[40] = tested on: RPMI-8226 leukemia
[41] = tested on: RXF 393 renal
[42] = tested on: SF-268 CNS
[43] = tested on: SF-295 CNS
[44] = tested on: SF-539 CNS
[45] = tested on: SK-MEL-2 melanoma
[46] = tested on: SK-MEL-28 melanoma
[47] = tested on: SK-MEL-5 melanoma
[48] = tested on: SK-OV-3 ovarian
[49] = tested on: SN12C renal
[50] = tested on: SNB-19 CNS
[51] = tested on: SNB-75 CNS
[52] = tested on: SR leukemia
[53] = tested on: SW-620 colon
[54] = tested on: T-47D breast
[55] = tested on: TK-10 renal
[56] = tested on: U251 CNS
[57] = tested on: UACC-257 melanoma
[58] = tested on: UACC-62 melanoma
[59] = tested on: UO-31 renal

Cc1cc2nc3c4ccccc4n(CCCN(C)C)c3nc2cc1C
GI50 [1]: 3 µM
TGI [1]: 11.8 µM
GI50 [2]: 3.97 µM
TGI [2]: 13 µM
GI50 [3]: 1500 nM
TGI [3]: 4.04 µM
GI50 [4]: 1730 nM
TGI [4]: 4.91 µM
GI50 [5]: 2.51 µM
TGI [5]: 9.68 µM
GI50 [6]: 2.08 µM
TGI [6]: 7.36 µM
GI50 [7]: 3.05 µM
TGI [7]: 11.7 µM
GI50 [8]: 1320 nM
TGI [8]: 2850 nM
GI50 [9]: 3.16 µM
TGI [9]: 9.57 µM
GI50 [10]: 3.01 µM
TGI [10]: 10.1 µM
GI50 [11]: 1.74 µM
TGI [11]: 3.83 µM
GI50 [12]: 1.77 µM
TGI [12]: 9 µM
GI50 [13]: 1800 nM
TGI [13]: 3.56 µM
GI50 [14]: 2.19 µM
TGI [14]: 5.43 µM
GI50 [15]: 1.57 µM
TGI [15]: 5 µM
GI50 [16]: 1.89 µM
TGI [16]: 9.4 µM
GI50 [17]: 2.95 µM
TGI [17]: 14.8 µM
GI50 [18]: 1.45 µM
TGI [18]: 4.53 µM
GI50 [19]: 1.76 µM
TGI [19]: 4.11 µM
GI50 [20]: 2.52 µM
TGI [20]: 10.2 µM
GI50 [21]: 3.31 µM
TGI [21]: 11.3 µM
GI50 [22]: 1.35 µM
TGI [22]: 2.87 µM
GI50 [23]: 1690 nM
TGI [23]: 3.5 µM
GI50 [24]: 1820 nM
TGI [24]: 3910 nM
GI50 [25]: 1.95 µM
TGI [25]: 4.88 µM
GI50 [26]: 1.94 µM
TGI [26]: 4.79 µM
GI50 [27]: 2090 nM
TGI [27]: 4.52 µM
GI50 [28]: 2460 nM
TGI [28]: 7.54 µM
GI50 [29]: 1.94 µM
TGI [29]: 6.41 µM
GI50 [30]: 2.38 µM
TGI [30]: 9.14 µM
GI50 [31]: 1.71 µM
TGI [31]: 4.1 µM
GI50 [32]: 2.31 µM
TGI [32]: 6.76 µM
GI50 [33]: 1.44 µM
TGI [33]: 3.45 µM
GI50 [34]: 1.41 µM
TGI [34]: 3.57 µM
GI50 [35]: 2.46 µM
TGI [35]: 6 µM
GI50 [36]: 2.65 µM
TGI [36]: 8.11 µM
GI50 [37]: 2.34 µM
TGI [37]: 6.87 µM
GI50 [38]: 1.32 µM
TGI [38]: 4.08 µM
GI50 [39]: 2.71 µM
TGI [39]: 17.3 µM
GI50 [40]: 2.65 µM
TGI [40]: 13.1 µM
GI50 [41]: 2.28 µM
TGI [41]: 7.09 µM
GI50 [42]: 2.95 µM
TGI [42]: 10.1 µM
GI50 [43]: 2.29 µM
TGI [43]: 8.79 µM
GI50 [44]: 2.16 µM
TGI [44]: 5.51 µM
GI50 [45]: 1680 nM
TGI [45]: 3.21 µM
GI50 [46]: 3060 nM
TGI [46]: 9.72 µM
GI50 [47]: 2210 nM
TGI [47]: 5.12 µM
GI50 [48]: 2.05 µM
TGI [48]: 5.93 µM
GI50 [49]: 2.33 µM
TGI [49]: 10.1 µM
GI50 [50]: 2.99 µM
TGI [50]: 11.5 µM
GI50 [51]: 1.85 µM
TGI [51]: 10.2 µM
GI50 [52]: 2.03 µM
TGI [52]: 6.94 µM
GI50 [53]: 1.72 µM
TGI [53]: 5.45 µM
GI50 [54]: 2.72 µM
TGI [54]: 9.11 µM
GI50 [55]: 2.58 µM
TGI [55]: 8.64 µM
GI50 [56]: 2000 nM
TGI [56]: 6.42 µM
GI50 [57]: 1840 nM
TGI [57]: 4410 nM
GI50 [58]: 1890 nM
TGI [58]: 4.97 µM
GI50 [59]: 0.6 µM
TGI [59]: 3.27 µM

CC1(C)CC[C@]2(C(=O)O)CC[C@]3(C)C(=CCC4[C@@]5(C)C[C@@H](O)[C@@H]6OC(c7ccco7)OC[C@@]6(C)C5CC[C@]43C)C2C1 (stereo partly specified)
GI50 [1]: 18.9 µM
TGI [1]: 64.7 µM
GI50 [2]: 14.1 µM
TGI [2]: 30.8 µM
GI50 [3]: 3200 nM
TGI [3]: 20.2 µM
GI50 [4]: 111 nM
TGI [4]: 14.5 µM
GI50 [5]: 6.78 µM
TGI [5]: 21.4 µM
GI50 [6]: 21.3 µM
TGI [6]: 83.3 µM
GI50 [7]: 5.21 µM
TGI [7]: 30.3 µM
GI50 [8]: 110 nM
TGI [8]: 263 nM
GI50 [9]: 11.6 µM
TGI [9]: 85 µM
GI50 [10]: 5.05 µM
TGI [10]: 21.9 µM
GI50 [11]: 6.35 µM
TGI [11]: 20.4 µM
GI50 [12]: 5.01 µM
TGI [12]: 18.4 µM
GI50 [13]: 3320 nM
TGI [13]: 15.8 µM
GI50 [14]: 9.31 µM
TGI [14]: 43.4 µM
GI50 [15]: 7.06 µM
TGI [15]: 28.7 µM
GI50 [16]: 5.97 µM
TGI [16]: 22.7 µM
GI50 [17]: 11.1 µM
TGI [17]: 45.2 µM
GI50 [18]: 12.8 µM
TGI [18]: 41.5 µM
GI50 [19]: 11.7 µM
TGI [19]: 28 µM
GI50 [20]: 4.81 µM
TGI [20]: > 100 µM
GI50 [21]: 5.84 µM
TGI [21]: 23.4 µM
GI50 [22]: 5.69 µM
TGI [22]: 19.1 µM
GI50 [23]: 416 nM
TGI [23]: 16.8 µM
GI50 [24]: 191 nM
TGI [24]: 894 nM
GI50 [25]: 8.83 µM
TGI [25]: 36.4 µM
GI50 [26]: 16.2 µM
TGI [26]: 32.3 µM
GI50 [27]: 475 nM
TGI [27]: 15.4 µM
GI50 [28]: 110 nM
TGI [28]: 6.03 µM
GI50 [29]: 4.75 µM
TGI [29]: 33.7 µM
GI50 [30]: 11.7 µM
TGI [30]: 36.1 µM
GI50 [31]: 9.31 µM
TGI [31]: 23.2 µM
GI50 [32]: 6.45 µM
TGI [32]: 19.9 µM
GI50 [33]: 10.6 µM
TGI [33]: 28.1 µM
GI50 [34]: 6.62 µM
TGI [34]: 32.3 µM
GI50 [35]: 9.25 µM
TGI [35]: 23 µM
GI50 [36]: 16.6 µM
TGI [36]: 63.4 µM
GI50 [37]: 16.4 µM
TGI [37]: 30.6 µM
GI50 [38]: 10.3 µM
TGI [38]: 61.5 µM
GI50 [39]: 9.27 µM
TGI [39]: > 100 µM
GI50 [40]: 5.62 µM
TGI [40]: 71.2 µM
GI50 [41]: 13 µM
TGI [41]: 26.5 µM
GI50 [42]: 10.7 µM
TGI [42]: 31.8 µM
GI50 [43]: 5.3 µM
TGI [43]: 19.1 µM
GI50 [44]: 13.3 µM
TGI [44]: 26.4 µM
GI50 [45]: 417 nM
TGI [45]: 13.7 µM
GI50 [46]: 220 nM
TGI [46]: 15.7 µM
GI50 [47]: 304 nM
TGI [47]: 1.2 µM
GI50 [48]: 27.1 µM
TGI [48]: > 100 µM
GI50 [49]: 11.8 µM
TGI [49]: 26.2 µM
GI50 [50]: 3.97 µM
TGI [50]: 21.8 µM
GI50 [51]: 6.35 µM
TGI [51]: 30.2 µM
GI50 [52]: 9.92 µM
TGI [52]: 51.4 µM
GI50 [53]: 11.2 µM
TGI [53]: 25.4 µM
GI50 [54]: 15.6 µM
TGI [54]: > 100 µM
GI50 [55]: 16.4 µM
TGI [55]: 68.9 µM
GI50 [56]: 1470 nM
TGI [56]: 16.9 µM
GI50 [57]: 208 nM
TGI [57]: 913 nM
GI50 [58]: 312 nM
TGI [58]: 12.5 µM
GI50 [59]: 6.95 µM
TGI [59]: 21.1 µM

From PubChem BioAssay (NCI)
